One test deals with L1210. In words: Cytotoxicity against mouse L1210 cells. Type of test: functional, cell-based.
The test system of a further test is KB. The test is described as follows: Cytotoxicity against human KB cells. The class given is functional. The conditions noted are these: read-out: MIC.
The test system of the next test is Micrococcus luteus. In words: Antimicrobial activity against Micrococcus luteus. Type of test: functional.
Another test concerns Cryptococcus neoformans. In words: Antimicrobial activity against Cryptococcus neoformans. Type of test: functional.
Test [1] has as its system Trichophyton mentagrophytes. In words: Antimicrobial activity against Trichophyton mentagrophytes. The class given is functional.

Converted amounts (≈) assume the structure as drawn.

The IC50 is the concentration needed to halve the response being measured. Read a high IC50 as weaker potency. Turning to `Cc1c(O)c(C(=O)C(C)C)c2c3c1OC(C)(C)[C@@H]1CC[C@@](C)(C[C@@H]31)O2` [PETIOLIN K], in the test with L1210, the IC50 was more than 10 µg/mL. The cytotoxic concentration with KB is more than 10 µg/mL.
Usually MIC stands for the smallest concentration in the dilution series that meets the test's criterion for growth inhibition. Lower therefore signals inhibition by little substance. Take `CC(C)=CCC[C@]1(C)Oc2c(c(O)c(C)c(O)c2C(=O)C(C)C)C[C@H]1O` [PETIOLIN J]: the MIC worked out at 8 µg/mL (≈ 22.1 µM) against Micrococcus luteus, 16 µg/mL (≈ 44.1 µM) with Cryptococcus neoformans and 16 µg/mL (≈ 44.1 µM) in test [1]. In the test with L1210, this molecule displayed an IC50 of more than 10 µg/mL. Moreover, the cytotoxic concentration in the test on KB is more than 10 µg/mL.
`CC(C)=CCC[C@](C)(O)[C@H]1C[C@@]2(CC=C(C)C)C(=O)C(C)(C)C(=O)C(C(=O)C(C)C)=C2O1` [PETIOLIN M] yielded an IC50 in the test with L1210 of more than 10 µg/mL. In the test with KB, the cytotoxic concentration is more than 10 µg/mL.
As for `CCC(C)C(=O)C1=C2O[C@@H]([C@@](C)(O)CCC=C(C)C)C[C@]2(CC=C(C)C)C(=O)C(C)(C)C1=O` (stereo partly specified) [PETIOLIN L], the IC50 in the test with L1210 is more than 10 µg/mL. In addition, the cytotoxic concentration in the test with KB was more than 10 µg/mL.

These data come from ChEMBL document CHEMBL1208744, “Petiolins J-M, prenylated acylphloroglucinols from Hypericum pseudopetiolatum var. kiusianum” (Bioorg Med Chem Lett, 2010).
